{
  "source": "patent US20130281420A1",
  "about": "“Ophthalmic Formulations of Squalamine” (Ohr Pharmaceutical, Inc., priority 2010, published 2013)",
  "key": {"[1]": {"test": "Ocular biodistribution study following ocular administration", "format": "in vivo, Dutch-Belted rabbits", "settings": "formulation G, 0.08 mg/eye once; for concentration at 15 min / concentration at 30 min / concentration at 3 h: male, Dutch-Belted, rabbit, posterior sclera and choroid, other: ocular administration, 0.08 mg/eye", "protocol": "The objective of this study was to determine the ocular biodistribution of squalamine lactate formulation G (see composition above) when given once by ocular administration to male Dutch-Belted rabbits.\nThe study design was as follows:\nBody weight measurements were taken for randomization/dose calculation purposes. […] Following dose administration, blood samples were collected at specified time points and plasma was prepared. After blood sample collection, the animals were euthanized and a necropsy was performed to collect the following ocular tissues: aqueous humor, vitreous humor, sensory retina and choroid/sclera."}, "[2]": {"test_system": "human vascular endothelial cells (HUVEC)", "test": "Inhibition of VEGF induced tube formation by HUVEC", "format": "cell-based", "settings": "50 nM (tested at 50, 100, 200 nM), 24 hrs, Matrigel with VEGF", "protocol": "Squalamine lactate was mixed in solution at 50, 100 or 200 nM concentration with a suspension of human vascular endothelial cells (HUVEC). The suspension was then immediately plated on Matrigel which contained multiple growth factors including vascular endothelial cell growth factor (VEGF). The plates were incubated at 37° C. in an atmosphere of […] for 24 hrs and then the plates were photographed."}, "[3]": {"test_system": "AMD", "settings": "cited from earlier work"}, "[4]": {"settings": "any animals (15 min, 30 min, 3 hrs)"}, "[5]": {"settings": "mean of eyes, read-out: Squalamine in posterior sclera and choroid, Mean"}},
  "note": "Counter-ions that a name gives are not always drawn. Like-named read-outs stand apart in the source and are kept apart here.",
  "data": [
    {"smiles": "CC(C)[C@@H](CC[C@@H](C)[C@H]1CC[C@H]2[C@@H]3[C@H](O)C[C@H]4C[C@@H](NCCCNCCCCN)CC[C@]4(C)[C@H]3CC[C@]12C)OS(=O)(=O)O", "note": "[Squalamine, ([6-[(3S,5R,7R,10S,13R,145)-3-[3-(4-aminobutylamino)propylamino]-7-hydroxy-10,13-dimethyl-2,3,4,5,6,7,8,9,11,12,14,15,16,17-tetradecahydro-1H-cyclopenta[a]phenanthren-17-yl]-2-methylheptan-3-yl]hydrogen sulfate)]", "values": [
      {"measurement": "Squalamine in posterior sclera and choroid", "setting": "[1]; 30 min, An#105 left eye", "value": "BQL"},
      {"measurement": "Level of squalamine in aqueous humor", "setting": "[1]; [4]", "value": "No quantifiable levels"},
      {"measurement": "Level of squalamine in vitreous humor", "setting": "[1]; [4]", "value": "No quantifiable levels"},
      {"measurement": "concentration at 15 min", "setting": "[1]; An#101 left eye, read-out: Squalamine in posterior sclera and choroid", "value": 101, "unit": "ng/g"},
      {"measurement": "concentration at 15 min", "setting": "[1]; An#101 right eye, read-out: Squalamine in posterior sclera and choroid", "value": 26.6, "unit": "ng/g"},
      {"measurement": "concentration at 15 min", "setting": "[1]; An#102 left eye, read-out: Squalamine in posterior sclera and choroid", "value": 44.2, "unit": "ng/g"},
      {"measurement": "concentration at 15 min", "setting": "[1]; An#102 right eye, read-out: Squalamine in posterior sclera and choroid", "value": 145, "unit": "ng/g"},
      {"measurement": "concentration at 15 min", "setting": "[1]; An#103 left eye, read-out: Squalamine in posterior sclera and choroid", "value": 195, "unit": "ng/g"},
      {"measurement": "concentration at 15 min", "setting": "[1]; An#103 right eye, read-out: Squalamine in posterior sclera and choroid", "value": 31.7, "unit": "ng/g"},
      {"measurement": "concentration at 15 min", "setting": "[1]; [5]", "value": 90.6, "unit": "ng/g"},
      {"measurement": "concentration at 30 min", "setting": "[1]; 30 min, An#104 left eye, read-out: Squalamine in posterior sclera and choroid", "value": 54.4, "unit": "ng/g"},
      {"measurement": "concentration at 30 min", "setting": "[1]; 30 min, An#104 right eye, read-out: Squalamine in posterior sclera and choroid", "value": 121, "unit": "ng/g"},
      {"measurement": "concentration at 30 min", "setting": "[1]; 30 min, An#105 right eye, read-out: Squalamine in posterior sclera and choroid", "value": 78.9, "unit": "ng/g"},
      {"measurement": "concentration at 30 min", "setting": "[1]; 30 min, An#106 left eye, read-out: Squalamine in posterior sclera and choroid", "value": 96.7, "unit": "ng/g"},
      {"measurement": "concentration at 30 min", "setting": "[1]; 30 min, An#106 right eye, read-out: Squalamine in posterior sclera and choroid", "value": 94.1, "unit": "ng/g"},
      {"measurement": "concentration at 30 min", "setting": "[1]; 30 min, mean of eyes, read-out: Squalamine in posterior sclera and choroid, Mean", "value": 89, "unit": "ng/g"},
      {"measurement": "concentration at 3 h", "setting": "[1]; An#107 left eye, read-out: Squalamine in posterior sclera and choroid", "value": 23.9, "unit": "ng/g"},
      {"measurement": "concentration at 3 h", "setting": "[1]; An#107 right eye, read-out: Squalamine in posterior sclera and choroid", "value": 149, "unit": "ng/g"},
      {"measurement": "concentration at 3 h", "setting": "[1]; An#108 left eye, read-out: Squalamine in posterior sclera and choroid", "value": 26, "unit": "ng/g"},
      {"measurement": "concentration at 3 h", "setting": "[1]; An#108 right eye, read-out: Squalamine in posterior sclera and choroid", "value": 34.6, "unit": "ng/g"},
      {"measurement": "concentration at 3 h", "setting": "[1]; An#109 left eye, read-out: Squalamine in posterior sclera and choroid", "value": 71.8, "unit": "ng/g"},
      {"measurement": "concentration at 3 h", "setting": "[1]; An#109 right eye, read-out: Squalamine in posterior sclera and choroid", "value": 51.1, "unit": "ng/g"},
      {"measurement": "concentration at 3 h", "setting": "[1]; [5]", "value": 59.4, "unit": "ng/g"},
      {"measurement": "HUVEC tube formation on Matrigel", "setting": "[2]", "value": "disrupts tube formation"},
      {"measurement": "visual acuity", "setting": "[3]; IV infusion, after the first four to five weeks of administration", "value": "good gains in visual acuity"},
      {"measurement": "plasma half-life", "setting": "[3]; human subjects, 40 mg dose, intravenous infusion", "value": "short"},
      {"measurement": "adverse reactions of intravenous dosing", "setting": "[3]; intravenous dosing, human", "value": "local infusion-site reactions"}
    ]}
  ]
}
